Molecular target: T1, TGF-beta receptor type-1 (Homo sapiens, UniProt P36897)
T1 sequence (P36897 whole entry): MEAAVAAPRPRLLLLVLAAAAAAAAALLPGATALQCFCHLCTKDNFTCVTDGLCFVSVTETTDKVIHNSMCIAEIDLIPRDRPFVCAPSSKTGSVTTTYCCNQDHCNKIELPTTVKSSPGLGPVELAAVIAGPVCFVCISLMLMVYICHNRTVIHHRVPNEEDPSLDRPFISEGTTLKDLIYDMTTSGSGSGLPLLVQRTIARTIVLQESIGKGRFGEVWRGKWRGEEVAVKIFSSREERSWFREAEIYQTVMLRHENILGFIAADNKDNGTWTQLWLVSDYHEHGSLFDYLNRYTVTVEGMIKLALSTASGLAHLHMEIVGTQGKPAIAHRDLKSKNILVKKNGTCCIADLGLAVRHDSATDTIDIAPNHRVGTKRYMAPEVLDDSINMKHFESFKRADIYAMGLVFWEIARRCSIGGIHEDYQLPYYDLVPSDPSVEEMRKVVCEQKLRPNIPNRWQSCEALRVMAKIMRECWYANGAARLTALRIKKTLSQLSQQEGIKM
Assay: In Vitro Enzyme Assay
Experimental: Human TGFβl R-1 inhibition experiments were carried out in a white 384-microplate low flange (Corning 3572) with ADP-Glo kinase Assay Kit (Promega V9101) and TGβR-1 Kinase Enzyme System (Promega V4092). […] The reaction mixture was incubated in gentle shaking for 120 min at RT, after incubation of 10 μL of ADP-Glo Reagent was added and incubated in gentle shaking for 40 min at RT. 20 μL of Kinase Detection Reagent was added and plate was incubated in gentle shaking for 30 min at RT. Luminiscence (1000 ms) was measured in Perkin Elmer EnSpire Multimode plate reader.

IC50 | Structure (SMILES)
in the range around 450 nM | O=C(Cn1cc(-c2ccnc3ccccc23)c(-c2ccccn2)n1)NCC1=CC(F)CC=C1 (centres undefined) [US12297186, Example 11]
in the range around 450 nM | CC1C=C(CNC(=O)Cn2cc(-c3ccnc4ccccc34)c(-c3ccccn3)n2)C=CC1 (centres undefined) [US12297186, Example 10]
in the range around 450 nM | N#CC1C=C(CNC(=O)Cn2cc(-c3ccnc4ccccc34)c(-c3ccccn3)n2)C=CC1 (centres undefined) [US12297186, Example 13]
in the range around 450 nM | O=C(Cn1cc(-c2ccnc3ccccc23)c(-c2ccccn2)n1)NCC1=CC(Cl)CC=C1 (centres undefined) [US12297186, Example 12]

Reference: BindingDB's records for patent US12297186 (Agomab Spain, S.L.U., 2025)
